A word on the MIC: it is the lowest concentration found to suppress growth. Low readings indicate greater potency, high ones weaker potency.

Test in all cases: ≥ marks a high value that may be exact or a test limit, other limits are often not marked, values filed in µg/mL are converted to µM
The test system of test [1] is Pseudomonas aeruginosa ATCC 21625.
In test [2] the test system is Salmonella enterica subsp. enterica serovar Pullorum C79-13.
The subject of test [3] is Escherichia coli 078.
For test [4], the system named is Enterococcus faecalis ATCC 29212.
The subject of test [5] is Salmonella enterica subsp. enterica serovar Typhimurium C77-31.
The subject of test [6] is Escherichia coli UB1005.
The test system of test [7] is Staphylococcus aureus ATCC 29213.
Test [8] concerns Escherichia coli CMCC 44102.
Test [9] deals with Escherichia coli ER2566.
Test [10] deals with Staphylococcus epidermidis ATCC 12228.
Test [11] has as its system Bacillus subtilis ATCC 11060.
The test system of test [12] is Pseudomonas aeruginosa ATCC 21630.
For test [13], the system named is Staphylococcus aureus ATCC 25923.
Test [14] relates to Pseudomonas aeruginosa ATCC 10419.
Test [15] deals with Escherichia coli K88.
Test [16] relates to Pseudomonas aeruginosa ATCC 27853.
The subject of test [17] is Salmonella enterica subsp. enterica serovar Typhimurium ATCC 14028.
Test [18] has as its system Escherichia coli CVCC 1515.
Test [19] concerns Staphylococcus aureus NBRC 13276.
Test [20] has as its system Pseudomonas aeruginosa NBRC 13275.
Test [21] deals with Escherichia coli DH5alpha.
The test system of test [22] is Escherichia coli MG1655.
Test [23] has as its system Bacillus subtilis 168 HT.
Test [24] concerns Bacillus subtilis KCTC 2217.
For test [25], the system named is Acinetobacter baumannii KCTC 2508.
In test [26] the test system is Bacillus subtilis ATCC 6051.
The test system of test [27] is Pseudomonas aeruginosa PAO1.
The subject of test [28] is Bacillus licheniformis ATCC 14580.
Test [29] concerns Salmonella enterica ATCC H9812.
Test [30] concerns Enterococcus faecalis A4.
Test [31] has as its system Escherichia coli ATCC 25922.
In test [32] the test system is Enterococcus faecium 5F-10.
Test [33] concerns Bacillus amyloliquefaciens ATCC 23842.
Test [34] relates to Enterococcus faecalis 1F-1.
Test [35] has as its system Proteus mirabilis ATCC 35659.
The subject of test [36] is Bacillus cereus ATCC 14579.
Test [37] relates to Staphylococcus aureus MR.
Test [38] deals with Staphylococcus aureus 215.
Test [39] concerns Enterococcus faecium 4W-9.
In test [40] the test system is Bacillus cereus CGMCC 1.932.
Test [41] deals with Acinetobacter baumannii.
For test [42], the system named is Staphylococcus aureus ATCC 43300.
The test system of test [43] is Listeria monocytogenes CGMCC 1.1075.
Test [44] concerns Bacillus subtilis CMCC 63501.
For test [45], the system named is Escherichia coli K99.
Test [46] deals with Salmonella typhimurium ATCC 7731.
Test [47] has as its system Salmonella enterica subsp. enterica serovar Pullorum ATCC 7913.

In brackets after ≈: the same amount, converted by molar mass. Several values for one entry are separate records, joined by “and”; a condition that tells them apart may be missing. Equal values may be shown once.

On to `CC[C@H](C)[C@H](NC(=O)[C@H](CCCCN)NC(=O)[C@H](CCCCN)NC(=O)[C@H](CC(C)C)NC(=O)[C@H](CCCN=C(N)N)NC(=O)[C@H](Cc1c[nH]c2ccccc12)NC(=O)[C@H](CCCN=C(N)N)NC(=O)[C@@H](NC(=O)[C@H](CCCCN)NC(=O)[C@H](Cc1c[nH]c2ccccc12)NC(=O)[C@H](CCCN=C(N)N)NC(=O)[C@H](CC(C)C)NC(=O)[C@H](CCCN=C(N)N)NC(=O)[C@H](CCCN=C(N)N)NC(=O)[C@H](Cc1ccccc1)NC(=O)[C@@H](N)CCCN=C(N)N)[C@@H](C)O)C(=O)N[C@@H](Cc1c[nH]c2ccccc12)C(=O)N[C@@H](Cc1c[nH]c2ccccc12)C(=O)N1CCC[C@H]1C(=O)N[C@@H](Cc1ccccc1)C(=O)N[C@@H](CC(C)C)C(=O)N[C@@H](CCCN=C(N)N)C(=O)N[C@@H](CCCN=C(N)N)C(N)=O` [RFRRLRWKTRWRLKKIWWPFLRR], for which the MIC turned out to be 2 µM (≈ 6.7 µg/mL) in test [1]; 4.01 µM (≈ 13.4 µg/mL) in [2]; 4.01 µM (≈ 13.4 µg/mL) in [3]; 0.987 µM (≈ 3.3 µg/mL) in test [4]; 2 µM (≈ 6.7 µg/mL) in test [5]; 0.987 µM (≈ 3.3 µg/mL) in [6]. For the same molecule, the minimum inhibitory concentration (MIC) turned out to be 2 µM (≈ 6.7 µg/mL) in [7]; 2 µM (≈ 6.7 µg/mL) in [8]; 0.987 µM (≈ 3.3 µg/mL) in [9]; 4.01 µM (≈ 13.4 µg/mL) in [10]; 0.987 µM (≈ 3.3 µg/mL) in [11]; 4.01 µM (≈ 13.4 µg/mL) in test [12]. Further, the MIC in [13] turned out to be 7.99 µM (≈ 26.7 µg/mL); in test [14] it was 2 µM (≈ 6.7 µg/mL); in [15], 0.509 µM (≈ 1.7 µg/mL); in test [16], 4.01 µM (≈ 13.4 µg/mL); in test [17] it was 4.01 µM (≈ 13.4 µg/mL); in test [18], 0.509 µM (≈ 1.7 µg/mL).

Consider `CC(=O)N[C@@H](CCCCN)C(=O)N[C@@H](Cc1ccccc1)C(=O)N[C@@H](CC(C)C)C(=O)N[C@@H](Cc1cnc[nH]1)C(=O)N[C@@H](CO)C(=O)N[C@@H](C)C(=O)N[C@@H](CCCCN)C(=O)N[C@@H](CCCCN)C(=O)N[C@@H](Cc1ccccc1)C(=O)NCC(=O)N[C@@H](CCCCN)C(=O)N[C@@H](C)C(=O)N[C@@H](Cc1ccccc1)C(=O)N[C@H](C(N)=O)C(C)C` [KFLHSAKKFGKAFV], for which the MIC in test [19] was at least 400 µM; in test [20], at least 200 µM; in [21], at least 200 µM.

For `CC[C@H](C)[C@H](NC(=O)[C@H](CCCCN)NC(=O)[C@H](Cc1ccccc1)NC(=O)[C@H](CCCN=C(N)N)NC(=O)[C@H](CCCCN)NC(=O)[C@@H](NC(=O)[C@@H](NC(=O)[C@H](Cc1ccccc1)NC(=O)CN)[C@@H](C)CC)C(C)C)C(=O)N[C@@H](CC(C)C)C(=O)N[C@H](C(=O)O)C(C)C` [GFIVKRFKILV], the minimum inhibitory concentration (MIC) in test [22] and in test [23] was at least 97 µM in each case.

`CC(C)C[C@H](NC(=O)[C@H](CCCCN)NC(=O)[C@H](CCCCN)NC(=O)[C@H](CC(C)C)NC(=O)[C@H](CC(C)C)NC(=O)[C@@H]1CCCN1C(=O)[C@H](CCCCN)NC(=O)[C@H](CCCCN)NC(=O)[C@H](CC(C)C)NC(=O)[C@H](CC(C)C)NC(=O)[C@H](CCCCN)NC(=O)[C@H](CCCCN)NC(=O)[C@H](Cc1c[nH]c2ccccc12)NC(=O)[C@@H](N)CCCCN)C(N)=O` [KWKKLLKKPLLKKL]: the MIC was 1.56 µM and > 0.78 µM in test [13]; 3.13 µM (≈ 5.52 µg/mL) in test [24]; 12.5 µM (≈ 22 µg/mL) in test [25].

On to `CC(C)C[C@H](NC(=O)[C@H](CC(C)C)NC(=O)[C@@H](N)CCC(=O)O)C(=O)N[C@@H](CO)C(=O)N[C@@H](CCCCN)C(=O)N[C@H](C(=O)N[C@@H](CC(=O)O)C(=O)O)C(C)C` [ELLSKVD], for which the minimal inhibitory concentration (MIC) in test [26] was at least 159 µM; in test [27] it was over 159 µM; in test [28], at least 159 µM; in test [29], at least 159 µM; in test [30], at least 159 µM; in [31] it was 79.7 µM (≈ 64 µg/mL). The MIC in test [7] was 79.7 µM (≈ 64 µg/mL); in [32] it was at least 159 µM; in test [33], at least 159 µM; in test [34], at least 159 µM; in [35] it was at least 79.7 µM; in test [36], at least 159 µM. Further, the MIC was at least 79.7 µM in [37], at least 79.7 µM in test [38] and at least 159 µM in test [39].

Regarding `NCC(=O)N[C@@H](CCCN=C(N)N)C(=O)N[C@@H](Cc1c[nH]c2ccccc12)C(=O)N[C@@H](CCCN=C(N)N)C(=O)N[C@@H](Cc1c[nH]c2ccccc12)C(=O)N[C@@H](Cc1c[nH]c2ccccc12)C(=O)N[C@@H](Cc1c[nH]c2ccccc12)C(=O)N[C@@H](CCCN=C(N)N)C(=O)N[C@@H](Cc1c[nH]c2ccccc12)C(=O)N[C@@H](CCCN=C(N)N)C(=O)N[C@@H](Cc1c[nH]c2ccccc12)C(N)=O` [GRWRWWWRWRW], the minimum inhibitory concentration (MIC) in [27] was determined as 4 µM (≈ 7.26 µg/mL); in test [40], 8 µM (≈ 14.5 µg/mL); in test [41], 2 µM (≈ 3.63 µg/mL); in [3], 4 µM (≈ 7.26 µg/mL); in test [42], 2 µM (≈ 3.63 µg/mL); in [4], 2 µM (≈ 3.63 µg/mL). Besides, the minimum inhibitory concentration (MIC) was 2 µM (≈ 3.63 µg/mL) in test [43]; 4 µM (≈ 7.26 µg/mL) in test [6]; 4 µM (≈ 7.26 µg/mL) in test [10]; 8 µM (≈ 14.5 µg/mL) in test [44]; 2 µM (≈ 3.63 µg/mL) in test [45]; 2 µM (≈ 3.63 µg/mL) in [13]. The MIC in [46] stood at 16 µM (≈ 29.1 µg/mL); in test [15], 2 µM (≈ 3.63 µg/mL); in test [16], 8 µM (≈ 14.5 µg/mL); in test [47] it was 2 µM (≈ 3.63 µg/mL); in test [17] it was 2 µM (≈ 3.63 µg/mL).

The values are drawn from DBAASP.
